Measurements taken from ChEMBL document CHEMBL1255550, “Natural product derivatives with bactericidal activity against Gram-positive pathogens including methicillin-resistant Staphylococcus aureus and vancomycin-resistant Enterococcus faecalis” (2010).
Converted amounts (≈) assume the structure as drawn.

Columns and labels:
Assay type in all cases: functional
Staphylococcus aureus [1] = assay: Antibacterial activity against Staphylococcus aureus
Bacillus subtilis [2] = assay: Antibacterial activity against Bacillus subtilis
Enterococcus faecalis = assay: Antibacterial activity against vancomycin-resistant Enterococcus faecalis
Staphylococcus aureus [3] = assay: Antibacterial activity against methicillin-resistant Staphylococcus aureus
Bacillus anthracis = assay: Antibacterial activity against Bacillus anthracis
Bacillus subtilis [4] = assay: Antibacterial activity against Bacillus subtilis assessed as reduction of bacterial viability at 2 times MIC after 30mins

SMILES | MIC (Staphylococcus aureus [1]) [µg/mL] | MIC (Bacillus subtilis [2]) [µg/mL] | MIC (Enterococcus faecalis) [µg/mL] | MIC (Staphylococcus aureus [3]) [µg/mL] | MIC (Bacillus anthracis) [µg/mL] | log10cfu (Bacillus subtilis [4])
C[C@H](C[C@H]1CC[C@@H]([C@H](C)Cn2cc(-c3ccccn3)nn2)O1)OC(=O)c1ccccc1 | 320 (≈ 761 µM) | 20 (≈ 47.6 µM) | 26 (≈ 61.8 µM) | 210 (≈ 499 µM) | 320 (≈ 761 µM) | –
COC(=O)CCC(=O)O[C@H](C)C[C@H]1CC[C@@H]([C@H](C)Cn2cc(-c3cccc(NC(C)=O)c3)nn2)O1 | 370 (≈ 760 µM) | 91 (≈ 187 µM) | 61 (≈ 125 µM) | 122 (≈ 251 µM) | 180 (≈ 370 µM) | >3
CC(CC1CCC(C(C)Cn2cc(-c3ccccn3)nn2)O1)OC(=O)c1ccccc1 (racemic) | 630 (≈ 1500 µM) | 40 (≈ 95.1 µM) | – | – | 630 (≈ 1500 µM) | –
Br.COC(=O)CCC(=O)OC(C)CC1CCC(C(C)Cn2cc(-c3cccc(NC(C)=O)c3)nn2)O1 (racemic) | 370 | 180 | – | – | 370 | –
COC(=O)CCC(=O)O[C@@H](C)C[C@@H]1CC[C@H]([C@@H](C)Cn2cc(-c3cccc(NC(C)=O)c3)nn2)O1 (single isomer, unassigned) | > 730 | > 730 | > 730 | – | > 730 | –
C[C@@H](C[C@@H]1CC[C@H]([C@@H](C)Cn2cc(-c3ccccn3)nn2)O1)OC(=O)c1ccccc1 (single isomer, unassigned) | > 630 | > 630 | > 630 | – | > 630 | –
